# Strand notation (5' to 3'): a small letter for the sugar, then the base; units joined by * are phosphorothioate-linked, units joined directly phosphodiester-linked; [ ] holds rarer units or linkages, { } end groups; capitals alone tell only the bases. e = 2'-O-(2-methoxyethyl) (MOE); [5mC] = 5-methylcytosine; d = 2'-deoxy (DNA)
# Tests used:
# human PKK mRNA [1] = assay: Antisense inhibition of human PKK mRNA in HepaRG cells, 5,000 nM (Example 2); format: cell-based
# Method in brief: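 qRT-PCR (RTS3454) read-out, RIBOGREEN-normalized; % inhibition vs untreated cells. HepaRG, 20,000 cells/well, electroporation, 5,000 nM ASO, ~24 h.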
# human PKK mRNA [2] = assay: Dose-dependent antisense inhibition of human PKK in HepaRG cells, 0.19-5.00 uM (Example 5); format: cell-based; settings: HepaRG cells; for percent inhibition of PKK at 0.19 μM / percent inhibition of PKK at 0.56 μM / percent inhibition of PKK at 1.67 μM / percent inhibition of PKK at 5.00 μM: electroporation, approximately 16 hours
# Method in brief: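 PKK mRNA knockdown was measured by real-time PCR (primer probe set RTS3454) about 16 h after electroporating 20,000 HepaRG cells per well with oligonucleotide at four doses from 0.19 to 5.00 μM. Levels were adjusted to RIBOGREEN-measured total RNA, and IC50 values were calculated.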
# [3] = HepaRG cells, 5,000 nM antisense oligonucleotide, 5-10-5 gapmers, Table 16
# [4] = 4 point dose response, Table 38
# [5] = Table 13, human PKK mRNA in HepaRG cells, 5-10-5 gapmers
substance,measurement,setting,value
547298 (antisense eT*eT*eG*eG*eG*dT*dG*dG*dA*dA*dT*dG*dT*dG*d[5mC]*eA*e[5mC]*e[5mC]*eT*e[5mC]) [compound 547298],% inhibition,"human PKK mRNA [1]; HepaRG cells, electroporation with 5,000 nM antisense oligonucleotide, approximately 24 hours, PKK mRNA by RT-PCR (RTS3454), relative to untreated control cells, Table 5 experiment",90%
same,percent inhibition of PKK at 0.19 μM,human PKK mRNA [2]; Table 36,32%
same,percent inhibition of PKK at 0.56 μM,human PKK mRNA [2]; Table 36,61%
same,percent inhibition of PKK at 1.67 μM,human PKK mRNA [2]; Table 36,74%
same,percent inhibition of PKK at 5.00 μM,human PKK mRNA [2]; Table 36,90%
same,IC50,"human PKK mRNA [2]; 4 point dose response, Table 36",400 nM
same,"percent inhibition of PKK mRNA, 0.19 μM",human PKK mRNA [2]; 0.19 μM antisense oligonucleotide,0%
same,"percent inhibition of PKK mRNA, 0.56 μM",human PKK mRNA [2]; 0.56 μM antisense oligonucleotide,12%
same,"percent inhibition of PKK mRNA, 1.67 μM",human PKK mRNA [2]; 1.67 μM antisense oligonucleotide,67%
same,"percent inhibition of PKK mRNA, 5.00 μM",human PKK mRNA [2]; 5.00 μM antisense oligonucleotide,87%
same,IC50,human PKK mRNA [2]; 0.19-5.00 μM,1700 nM
547694 (antisense eG*eT*e[5mC]*eA*e[5mC]*dT*dG*dT*dA*d[5mC]*d[5mC]*dT*dA*dT*dA*eA*e[5mC]*eT*eG*eT) [compound 547694],% inhibition,human PKK mRNA [1]; [3],92%
same,percent inhibition of PKK at 0.19 μM,human PKK mRNA [2]; Table 35,0%
same,percent inhibition of PKK at 0.56 μM,human PKK mRNA [2]; Table 35,29%
same,percent inhibition of PKK at 1.67 μM,human PKK mRNA [2]; Table 35,67%
same,percent inhibition of PKK at 5.00 μM,human PKK mRNA [2]; Table 35,90%
same,IC50,"human PKK mRNA [2]; 4 point dose response, Table 35",1200 nM
547514 (antisense eA*eG*eA*eT*eG*d[5mC]*d[5mC]*dA*d[5mC]*dT*d[5mC]*dT*d[5mC]*d[5mC]*dA*eT*eG*e[5mC]*eT*eT) [compound 547514],% inhibition,"human PKK mRNA [1]; HepaRG cells, electroporation, 5,000 nM antisense oligonucleotide, approx. 24 hours, primer probe set RTS3454, relative to untreated control cells, Table 11",85%
same,percent inhibition of PKK at 0.19 μM,human PKK mRNA [2]; Table 38,18%
same,percent inhibition of PKK at 0.56 μM,human PKK mRNA [2]; Table 38,8%
same,percent inhibition of PKK at 1.67 μM,human PKK mRNA [2]; Table 38,51%
same,percent inhibition of PKK at 5.00 μM,human PKK mRNA [2]; Table 38,80%
same,IC50,human PKK mRNA [2]; [4],1900 nM
547633 (antisense eA*eT*e[5mC]*eA*e[5mC]*dT*dG*dT*d[5mC]*d[5mC]*dT*dA*dT*dA*dT*e[5mC]*eA*e[5mC]*eT*e[5mC]) [compound 547633],% inhibition,"human PKK mRNA [1]; human PKK mRNA, HepaRG cells, 5-10-5 motif oligonucleotides targeting SEQ ID NO: 1 and 10",87%
same,percent inhibition of PKK at 0.19 μM,human PKK mRNA [2]; Table 39,12%
same,percent inhibition of PKK at 0.56 μM,human PKK mRNA [2]; Table 39,46%
same,percent inhibition of PKK at 1.67 μM,human PKK mRNA [2]; Table 39,78%
same,IC50,"human PKK mRNA [2]; 4 point dose response, Table 39",700 nM
547575 (eG*eG*eG*eA*eA*dA*d[5mC]*dT*d[5mC]*dT*dT*dT*d[5mC]*d[5mC]*dT*e[5mC]*eG*e[5mC]*e[5mC]*e[5mC]; antisense) [compound 547575],% inhibition,human PKK mRNA [1]; [5],89%
same,percent inhibition of PKK at 0.19 μM,human PKK mRNA [2]; Table 37,0%
same,percent inhibition of PKK at 0.56 μM,human PKK mRNA [2]; Table 37,34%
same,percent inhibition of PKK at 1.67 μM,human PKK mRNA [2]; Table 37,82%
same,percent inhibition of PKK at 5.00 μM,human PKK mRNA [2]; Table 37,93%
same,IC50,"human PKK mRNA [2]; 4 point dose response, Table 37",1100 nM
546980 (eA*eG*e[5mC]*e[5mC]*e[5mC]*dT*d[5mC]*dA*dA*dT*dT*dG*dT*dT*dG*e[5mC]*eT*eG*eG*eT; antisense) [compound 546980],% inhibition,human PKK mRNA [1]; [3],79%
same,percent inhibition of PKK at 0.19 μM,human PKK mRNA [2]; Table 40,0%
same,percent inhibition of PKK at 0.56 μM,human PKK mRNA [2]; Table 40,18%
same,percent inhibition of PKK at 1.67 μM,human PKK mRNA [2]; Table 40,29%
same,percent inhibition of PKK at 5.00 μM,human PKK mRNA [2]; Table 40,80%
same,IC50,"human PKK mRNA [2]; 4 point dose response, Table 40",2200 nM
546834 (eA*eA*e[5mC]*eT*e[5mC]*dT*dA*dA*d[5mC]*dA*dG*dT*dA*dT*d[5mC]*eA*e[5mC]*eT*eG*eT; antisense) [compound 546834],% inhibition,human PKK mRNA [1]; [5],86%
same,percent inhibition of PKK at 0.19 μM,human PKK mRNA [2]; Table 38,1%
same,percent inhibition of PKK at 0.56 μM,human PKK mRNA [2]; Table 38,0%
same,percent inhibition of PKK at 1.67 μM,human PKK mRNA [2]; Table 38,30%
same,percent inhibition of PKK at 5.00 μM,human PKK mRNA [2]; Table 38,83%
same,IC50,human PKK mRNA [2]; [4],2300 nM

# — patent publication US11840686B2, “Modulation of prekallikrein (PKK) expression” (Ionis Pharmaceuticals, Inc., priority 2013, dated 2023)
